# Data published in patent US20060153773A1, “Contrast medium for mri” (priority 2003, published 2006).
# What was measured:
# [1] = tested on: injured left common carotid artery; assay: In vivo MRI of common carotid arteries in balloon-injured living rat; details: for MRI signal in the injured left common carotid artery (image): 2 ml of 24 mM (about 160 μM/kg) via left femoral vein, T1 weighted spin echo, FIG. 6; for MRI signal intensity of injured common carotid artery versus normal common carotid artery: 2 ml of 24 mM via left femoral vein, time course, own agent stated at ten minutes after administration, FIG. 7
# Description: This example is to evaluate the imaging capability of the contrast agent of the present invention by means of an in vivo experiment using a living rat. A rat (weighing about 300 g) was anesthetized with pentobarbital, and inserted with a balloon-tip catheter through the left femoral artery [FIG. 5 (a), 1]. The left common carotid artery was scraped by the balloon to injure the endothelia thereof. Then the rat was injected, through the left femoral vein [FIG. 5 (a), 2], with 2 ml (about 160 μM/kg) of physiological aqueous solution of the contrast agent as prepared in Example 1 (24 mM). At predetermined lapses of time, images were taken by MRI (the T1 weighted spin echo method) around the right and left common carotid artery [the cross section along the line N-N in FIG. 5 (a)]. The rat was supplementally anesthetized in order to keep it motionless during the imaging operation. For comparison, an evaluation experiment was also carried out in the same manner with a conventional agent, DTPA-Gd. […] In FIG. 6, by “injured” is designated the left common carotid artery injured by the balloon, corresponding to 4 in FIG. 5 (b), while by “intact” is designated the right common carotid artery, which is normal and corresponds to 5 in FIG. 5 (b). The numeral 3 in FIG. 5 (b) denotes the bronchium.
# [2] = tested on: exfoliated endothelial site of aortic vascular section; assay: In vitro MRI imaging capability on aortic vascular section extirpated from a pig; details: pig aortic section immersed in 10 mM aqueous solution for ten seconds
# Description: For the contrast agent as synthesized (prepared) in Example 1, evaluation of in vitro imaging capability by MRI was carried out with an aortic vascular section extirpated from a pig, as a specimen.
# The aortic vascular section extirpated from a pig was spread in a rectangular shape measuring about 2 cm×3 cm to prepare a vascular section sample. The endothelial surface of the left half of the sample was exfoliated with a scalpel. The sample was then immersed in a 10 mM aqueous solution of the contrast agent for ten seconds. Following thorough washing with physiological saline solution, the sample was subjected to the evaluation by MRI as well as by visual observation.
# FIG. 2 (A) is a picture taken with a digital camera, which corresponds to the visual observation. […] FIG. 2 (B) is an MRI image (by the T1 weighted spin echo method).
# [3] = Gd content remaining in various organs of the rat (ICP); type: in vivo
# Description: This was also verified by measuring Gd (gadolinium) content remaining in various organs of the rat, in which the measurement was carried out as follows: The rat was administered with 1 ml heparin and a blood sample was taken from the rat. Then physiological saline solution was circulated throughout the rat, and the various organs were extirpated from the rat. To each organ and the blood sample was added 3 ml nitric acid, followed by standing for one hour. The resultant was added with 25% hydrogen peroxide aqueous solution and then allowed to stand overnight at room temperature. The resultant solution was warmed and added with 6 ml water. The insolubles were removed by filtration, and the filtrate was analyzed by ICP.
# [4] = tested on: exfoliated endothelial site (balloon-injured left carotid artery); assay: Ex vivo MRI of extirpated carotid arteries after injection into balloon-injured living rat; type: in vivo; details: 2 ml of 24 mM via right jugular vein, FIG. 3
# Description: The contrast agent of the present invention was evaluated for imaging capability by means of an ex vivo experiment using a living rat. A balloon-tip catheter was passed through the left femoral artery of the rat to injure the carotid artery with the balloon. Then 2 ml of aqueous saline solution containing 24 mM of the contrast agent (EBDTPA-Gd prepared in Example 1) was injected to the rat through the right jugular vein. After a predetermined period of time (10, 30 or 120 minutes), the right carotid artery and the left carotid artery were extirpated, developed, washed with a physiological saline, and then subjected to evaluation by MRI. The MRI evaluation was carried out by imaging the extirpated carotid artery sections, under the condition of being added with one or two droplets of physiological saline solution, by the T1 weighted spin echo method. In FIG. 3, by “injured” is denoted the exfoliated endothelial site (the left carotid artery), which had been injured by the balloon, while “intact” denotes the normal endothelial site (the right carotid artery). The photographs of the developed vascular samples as presented in FIG. 3 reveal purple coloring with intensities corresponding to the MRI signal intensities described later. The pictures (A) as presented in FIG. 3 below the photographs of the developed vascular samples illustrate the states of the samples prepared for the study by MRI. As illustrated, each carotid artery section was developed on a glass plate and covered with one or two droplets of physiological saline solution, for the MRI study.
smiles,measurement,setting,value
"O=C([O-])CN(CCN(CC(=O)[O-])CC(=O)O)CCN(CC(=O)[O-])CC(=O)O.[Gd+3] [DTPA-Gd, reference compound]",MRI signal in the injured left common carotid artery (image),[1],no such signal was observed
same,MRI signal intensity of injured common carotid artery versus normal common carotid artery,[1],no substantial difference
Cc1cc(-c2ccc(NC(=O)CN(CCN(CCN(CC(=O)O)CC(=O)O)CC(=O)O)CC(=O)O)c(C)c2)ccc1N=Nc1ccc2c(S(=O)(=O)O)cc(S(=O)(=O)O)c(N)c2c1O [contrast agent of the present invention],visual observation of the exfoliated endothelial site,[2]; FIG. 2(A),colored blue
same,MRI signal intensity at the exfoliated endothelial site relative to the normal endothelial site,"[2]; T1 weighted spin echo, FIG. 2(C)",about ten
same,MRI signal in the injured left common carotid artery (image),[1],clear MRI signal
same,MRI signal intensity of injured common carotid artery versus normal common carotid artery,[1],higher than that for the normal right common carotid artery
same,Gd content remaining in various organs,"[3]; rat organs and blood, ICP, FIG. 4",substantially no remaining Gd in organs other than the blood and kidney
same,colour of urine (excretion through the kidney),"[3]; rat, ten minutes after the administration",colored purple
same,difference in MRI signal intensity between exfoliated site and normal site,[4]; after 120 minutes,no substantial difference
same,difference in MRI signal intensity between exfoliated endothelial site and normal site,[4]; after thirty minutes,the difference in the signal intensity therebetween shortened
same,MRI signal intensity of the injured site relative to the normal site,[4]; ten minutes from the injection,1.74 times
